Laboratory results from publication PMC6194023 (Cell Death & Disease, 2018).

What was measured:
MDA-MB-468 [1] = experiment: mitotic catastrophe, nuclear staining; type: cell-based, human; details: MDA-MB-468, 0.5 μM, 30 h
Experimental: (§1) Then treated tumor cells were washed with PBS and stain with Hoechst 33342 in the dark for 15 min. Image were taken by fluorescence microscopy for morphological changes after YLT-11 treatment.

MDA-MB-231 [2] = experiment: mitotic catastrophe, nuclear staining; type: cell-based, human; details: MDA-MB-231, 0.5 μM, 30 h
Experimental: as §1

MDA-MB-231 xenografts = experiment: immunohistochemical analysis of tumor tissues; details: MDA-MB-231 tumor tissue
From the text: Tumor tissues obtained from the animal models were immersed in 4% paraformaldehyde. After washing with running tap water overnight, the tissues dehydrated trough a serial alcohol gradient and embedded in paraffin, Paraffin-embedded tumor sections were stained with primary antibodies (Ki67, cleaved caspase-3, p21, CDC25C, CyclinB1) using the DAB Detection Kit. The images were captured with a Carl Zeiss digital camera attached to a light microscope.

ERBB2/HER2 = ERBB2/HER2 (Homo sapiens, UniProt P04626); experiment: kinase activity in vitro; type: biochemical
TTBK1 = TTBK1 (Homo sapiens, UniProt Q5TCY1); experiment: kinase activity in vitro; type: biochemical
EGFR = EGFR (Homo sapiens, UniProt P00533); experiment: kinase activity in vitro; type: biochemical
EGFR, sequence (P00533 25-1210): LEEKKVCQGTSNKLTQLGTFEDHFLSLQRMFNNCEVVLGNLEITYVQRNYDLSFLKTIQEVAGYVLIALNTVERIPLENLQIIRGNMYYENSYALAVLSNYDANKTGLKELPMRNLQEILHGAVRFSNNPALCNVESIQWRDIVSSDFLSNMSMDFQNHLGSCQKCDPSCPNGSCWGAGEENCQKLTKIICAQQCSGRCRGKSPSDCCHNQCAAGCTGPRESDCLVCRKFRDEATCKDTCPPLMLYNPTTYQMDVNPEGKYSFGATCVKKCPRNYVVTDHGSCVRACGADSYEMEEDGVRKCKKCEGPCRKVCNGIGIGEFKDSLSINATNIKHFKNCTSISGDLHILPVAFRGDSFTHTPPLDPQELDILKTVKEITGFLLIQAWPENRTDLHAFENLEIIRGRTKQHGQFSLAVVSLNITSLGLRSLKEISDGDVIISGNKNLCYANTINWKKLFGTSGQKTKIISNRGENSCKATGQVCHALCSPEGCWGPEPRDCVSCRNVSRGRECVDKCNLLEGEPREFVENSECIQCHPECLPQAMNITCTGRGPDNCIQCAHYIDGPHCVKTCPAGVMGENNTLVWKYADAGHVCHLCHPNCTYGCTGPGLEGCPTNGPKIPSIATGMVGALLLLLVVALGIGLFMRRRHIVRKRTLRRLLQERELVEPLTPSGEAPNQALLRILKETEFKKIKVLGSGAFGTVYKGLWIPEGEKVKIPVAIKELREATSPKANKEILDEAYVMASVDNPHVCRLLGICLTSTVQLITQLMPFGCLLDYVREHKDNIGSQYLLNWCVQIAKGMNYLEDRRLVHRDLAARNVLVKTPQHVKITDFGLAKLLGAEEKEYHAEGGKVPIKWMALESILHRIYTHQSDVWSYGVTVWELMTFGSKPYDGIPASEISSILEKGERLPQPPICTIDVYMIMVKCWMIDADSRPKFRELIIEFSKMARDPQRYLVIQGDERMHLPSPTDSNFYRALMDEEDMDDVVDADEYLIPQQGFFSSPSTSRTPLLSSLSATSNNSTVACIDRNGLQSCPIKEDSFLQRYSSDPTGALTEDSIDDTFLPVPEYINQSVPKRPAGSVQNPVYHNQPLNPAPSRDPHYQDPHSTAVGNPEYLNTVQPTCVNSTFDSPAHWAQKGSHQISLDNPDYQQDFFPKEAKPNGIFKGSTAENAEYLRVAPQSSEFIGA

FGFR1 = FGFR1 (Homo sapiens, UniProt P11362); experiment: kinase activity in vitro; type: biochemical
[3] = system: MDA-MB-231 tumor xenograft; details: MDA-MB-231 xenograft, 90 mg/kg p.o. every day
MCF-7 tumor xenograft = details: MCF-7 xenograft, 90 mg/kg p.o. every day
breast xenograft models = experiment: breast tumor xenograft models (overall, tolerability); type: in vivo, BALB/c nude mice
PLK1 [4] = biological target: T1, PLK1 (Homo sapiens, UniProt P53350); experiment: competition binding constant assay
T1 sequence (P53350 whole entry): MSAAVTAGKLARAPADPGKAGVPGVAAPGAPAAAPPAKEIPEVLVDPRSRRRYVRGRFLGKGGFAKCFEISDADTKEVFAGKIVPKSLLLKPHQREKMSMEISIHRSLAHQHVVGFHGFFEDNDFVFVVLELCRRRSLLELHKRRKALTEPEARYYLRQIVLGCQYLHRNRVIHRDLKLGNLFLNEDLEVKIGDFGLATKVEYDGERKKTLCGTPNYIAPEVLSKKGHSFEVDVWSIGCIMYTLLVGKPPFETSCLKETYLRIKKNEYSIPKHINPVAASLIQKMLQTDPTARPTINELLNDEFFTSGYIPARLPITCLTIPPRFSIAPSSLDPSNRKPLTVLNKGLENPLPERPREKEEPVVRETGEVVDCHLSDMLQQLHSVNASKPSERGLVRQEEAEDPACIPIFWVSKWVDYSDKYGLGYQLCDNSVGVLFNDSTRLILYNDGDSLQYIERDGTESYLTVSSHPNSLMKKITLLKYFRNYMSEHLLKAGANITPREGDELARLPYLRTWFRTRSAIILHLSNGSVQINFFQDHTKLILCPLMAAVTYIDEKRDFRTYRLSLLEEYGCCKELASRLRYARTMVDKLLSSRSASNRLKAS
Experimental: (§3) Kinases were produced in HEK-293 cells and subsequently tagged with DNA for quantitative polymerase chain reaction (qPCR) detection. […] The beads were blocked with excess biotin and washed with blocking buffer (SeaBlock, 1% bovine serum albumin, 0.05% Tween-20, 1 mM dithiothreitol (DTT)). […] The kinase concentration in the eluates was measured by qPCR.

JNK2 = JNK2 (Homo sapiens, UniProt P45984); experiment: kinase activity in vitro; type: biochemical
PLK2 [5] = biological target: T2, PLK2 (Homo sapiens, UniProt Q9NYY3); experiment: competition binding constant assay
T2 construct: made in house; host or cells: T7 phage in E. coli (BL21-derived) or HEK-293 cells
T2 sequence (Q9NYY3 whole entry): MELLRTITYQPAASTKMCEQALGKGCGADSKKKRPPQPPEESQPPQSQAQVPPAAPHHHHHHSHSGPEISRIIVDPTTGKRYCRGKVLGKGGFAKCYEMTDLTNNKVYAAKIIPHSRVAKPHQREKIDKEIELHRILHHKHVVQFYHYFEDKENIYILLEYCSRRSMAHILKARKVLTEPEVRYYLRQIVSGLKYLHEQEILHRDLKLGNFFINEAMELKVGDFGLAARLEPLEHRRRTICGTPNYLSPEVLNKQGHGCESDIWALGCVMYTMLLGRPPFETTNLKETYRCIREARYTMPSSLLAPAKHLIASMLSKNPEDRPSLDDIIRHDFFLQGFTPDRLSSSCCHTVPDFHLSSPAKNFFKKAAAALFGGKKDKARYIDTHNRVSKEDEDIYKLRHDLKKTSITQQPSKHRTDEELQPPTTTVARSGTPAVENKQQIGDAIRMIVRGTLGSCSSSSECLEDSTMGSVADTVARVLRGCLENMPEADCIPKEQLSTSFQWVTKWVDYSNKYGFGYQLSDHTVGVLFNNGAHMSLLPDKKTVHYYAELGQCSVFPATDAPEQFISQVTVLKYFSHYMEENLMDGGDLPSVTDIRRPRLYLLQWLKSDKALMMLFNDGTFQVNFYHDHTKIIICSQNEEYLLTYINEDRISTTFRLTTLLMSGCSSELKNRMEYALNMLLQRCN
Experimental: as §3

[6] = system: MDA-MB-468 tumor xenograft; details: MDA-MB-468 xenograft, 90 mg/kg p.o. every day
PLK1 [7] = biological target: T1, PLK1; experiment: kinase activity in vitro; type: biochemical
PLK3 [8] = biological target: T3, PLK3 (Homo sapiens, UniProt Q9H4B4); experiment: kinase activity in vitro; type: biochemical
T3 sequence (Q9H4B4 whole entry): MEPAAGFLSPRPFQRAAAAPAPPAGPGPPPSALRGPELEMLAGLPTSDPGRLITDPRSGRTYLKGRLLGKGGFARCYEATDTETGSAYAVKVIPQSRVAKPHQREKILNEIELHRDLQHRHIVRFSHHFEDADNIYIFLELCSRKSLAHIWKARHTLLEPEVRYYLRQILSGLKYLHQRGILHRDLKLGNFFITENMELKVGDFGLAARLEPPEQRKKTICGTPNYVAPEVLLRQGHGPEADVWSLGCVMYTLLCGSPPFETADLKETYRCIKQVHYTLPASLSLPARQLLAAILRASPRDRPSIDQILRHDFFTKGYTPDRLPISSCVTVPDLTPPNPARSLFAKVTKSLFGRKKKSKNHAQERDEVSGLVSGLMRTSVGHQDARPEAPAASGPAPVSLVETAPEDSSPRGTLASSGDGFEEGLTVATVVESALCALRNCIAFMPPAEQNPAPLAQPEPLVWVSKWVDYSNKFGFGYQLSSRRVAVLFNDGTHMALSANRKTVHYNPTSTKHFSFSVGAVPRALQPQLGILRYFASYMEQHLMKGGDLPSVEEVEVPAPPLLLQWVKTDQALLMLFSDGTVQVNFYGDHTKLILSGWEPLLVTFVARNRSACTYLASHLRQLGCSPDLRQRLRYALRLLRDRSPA

[9] = system: MDA-MB-468 and MDA-MB-231; experiment: centriole number by immunofluorescence (centrin 2, γ-tublin); type: cell-based, human; details: 24 h
Experimental: Tumor cells were seeded in Millicell EZ SLIDE 8 well glass slide (Millipore, Ireland) at the density of 2 × 10^4 per well. […] Then cells were incubated with primary antibody overnight at 4 ℃ after blocked with 1% BSA. Goat anti-rabbit and goat anti-mouse secondary antibodies conjugated to FITC and […] were used to detect primary antibodies. Cell nucleuses were stained with DAPI. Images were taken using a Leica cofocusing microscope.

PLK3 [10] = biological target: T3, PLK3; experiment: competition binding constant assay
Experimental: as §3

PLK2 [11] = biological target: T2, PLK2; experiment: kinase activity in vitro; type: biochemical
Aurora A = Aurora A (Homo sapiens, UniProt O14965); experiment: kinase activity in vitro; type: biochemical
Aurora A, sequence (O14965 whole entry): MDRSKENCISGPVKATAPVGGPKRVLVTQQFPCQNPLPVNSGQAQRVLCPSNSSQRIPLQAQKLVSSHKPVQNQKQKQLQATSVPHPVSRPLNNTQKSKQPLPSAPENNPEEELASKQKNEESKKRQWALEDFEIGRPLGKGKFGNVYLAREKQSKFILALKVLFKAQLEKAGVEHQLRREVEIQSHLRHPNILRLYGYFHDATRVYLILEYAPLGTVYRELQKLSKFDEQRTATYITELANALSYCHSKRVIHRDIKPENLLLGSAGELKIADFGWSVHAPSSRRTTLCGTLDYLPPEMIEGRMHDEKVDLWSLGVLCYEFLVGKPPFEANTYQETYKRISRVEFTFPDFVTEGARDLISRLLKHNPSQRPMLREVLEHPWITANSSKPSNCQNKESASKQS

TOPK = TOPK (Homo sapiens, UniProt Q96KB5); experiment: kinase activity in vitro; type: biochemical
NEK2 = NEK2 (Homo sapiens, UniProt P51955); experiment: kinase activity in vitro; type: biochemical
TTBK2 = TTBK2 (Homo sapiens, UniProt Q6IQ55); experiment: kinase activity in vitro; type: biochemical
TTBK2, sequence (Q6IQ55 whole entry): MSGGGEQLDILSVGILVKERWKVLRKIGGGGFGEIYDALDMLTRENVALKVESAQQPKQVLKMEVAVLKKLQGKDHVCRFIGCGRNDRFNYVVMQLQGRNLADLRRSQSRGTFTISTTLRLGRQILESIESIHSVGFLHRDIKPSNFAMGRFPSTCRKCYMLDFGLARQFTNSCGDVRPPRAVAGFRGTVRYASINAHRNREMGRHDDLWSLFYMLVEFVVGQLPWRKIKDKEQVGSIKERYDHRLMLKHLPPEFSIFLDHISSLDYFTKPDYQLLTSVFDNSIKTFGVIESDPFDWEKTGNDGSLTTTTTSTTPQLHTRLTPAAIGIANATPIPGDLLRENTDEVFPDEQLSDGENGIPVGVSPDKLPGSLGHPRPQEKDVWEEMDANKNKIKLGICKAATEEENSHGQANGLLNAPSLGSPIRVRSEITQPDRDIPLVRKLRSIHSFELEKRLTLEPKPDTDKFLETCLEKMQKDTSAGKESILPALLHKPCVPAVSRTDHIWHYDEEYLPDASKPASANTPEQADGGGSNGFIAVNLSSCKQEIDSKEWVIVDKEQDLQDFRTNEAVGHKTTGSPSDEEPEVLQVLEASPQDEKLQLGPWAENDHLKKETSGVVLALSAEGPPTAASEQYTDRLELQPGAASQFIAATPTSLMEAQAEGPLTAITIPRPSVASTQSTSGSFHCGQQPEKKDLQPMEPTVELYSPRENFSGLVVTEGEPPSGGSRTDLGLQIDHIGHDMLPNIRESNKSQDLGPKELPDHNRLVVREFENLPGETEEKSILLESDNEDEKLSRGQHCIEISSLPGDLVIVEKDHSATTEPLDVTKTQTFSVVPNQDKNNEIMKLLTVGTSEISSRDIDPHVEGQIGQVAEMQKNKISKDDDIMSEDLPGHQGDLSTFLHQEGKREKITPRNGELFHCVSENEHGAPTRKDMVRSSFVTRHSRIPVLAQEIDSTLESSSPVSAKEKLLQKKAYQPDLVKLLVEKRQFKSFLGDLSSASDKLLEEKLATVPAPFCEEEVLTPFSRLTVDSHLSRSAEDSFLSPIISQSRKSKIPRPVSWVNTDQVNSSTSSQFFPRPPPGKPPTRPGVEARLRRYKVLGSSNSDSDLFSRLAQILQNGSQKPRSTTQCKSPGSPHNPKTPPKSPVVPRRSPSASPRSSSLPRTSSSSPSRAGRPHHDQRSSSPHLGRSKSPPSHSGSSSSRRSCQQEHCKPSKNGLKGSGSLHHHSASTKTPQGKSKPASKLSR

sub-acute toxicity test = type: in vivo, BALB/c mice; details: single oral dose 1 g/kg, observed 15 days
From the text: Then blood of the mice was obtained for serum biochemistry and hematological analysis using a Hitachi 7200 Blood Chemistry Analyzer and a Nihon Kohdern MEK-5216K Automatic Hematology Analyzer. The heart, liver, spleen, lung and kidney were fixed and routinely processed and embedded in paraﬃn for hematoxylin and eosin (H&E) staining analysis.

MDA-MB-436 = experiment: cells; details: Homo sapiens, MDA-MB-436, read-out: IC50 proliferation
Experimental: (§2) The IC50 values were calculated using the GraphPad Prism software, each assay was replicated 3 times.

MCF-10A = experiment: cells; details: Homo sapiens, read-out: IC50 proliferation
Experimental: as §2

ZR-75-1 = experiment: cells; details: Homo sapiens, ZR-75-1, read-out: IC50 proliferation
Experimental: as §2

MDA-MB-435 = experiment: cells; details: Homo sapiens, MDA-MB-435, read-out: IC50 proliferation
Experimental: as §2

MDA-MB-468 [12] = experiment: cells; details: Homo sapiens, MDA-MB-468, read-out: IC50 proliferation
Experimental: as §2

MDA-MB-231 [13] = experiment: cells; details: Homo sapiens, MDA-MB-231, read-out: IC50 proliferation
Experimental: as §2

HCC1954 = experiment: cells; details: Homo sapiens, HCC1954, read-out: IC50 proliferation
Experimental: as §2

MCF-7 = experiment: cells; details: Homo sapiens, MCF7, read-out: IC50 proliferation
Experimental: as §2

MDA-MB-453 = experiment: cells; details: Homo sapiens, MDA-MB-453, read-out: IC50 proliferation
Experimental: as §2

TNBC cell lines = experiment: cells; details: Homo sapiens, read-out: IC50 proliferation, range over TNBC cell lines
Experimental: as §2

BT549 = experiment: cells; details: Homo sapiens, BT-549, read-out: IC50 proliferation
Experimental: as §2

ZR-75-30 = experiment: cells; details: Homo sapiens, ZR-75-30, read-out: IC50 proliferation
Experimental: as §2

SKBR-3 = experiment: cells; details: Homo sapiens, SK-BR-3, read-out: IC50 proliferation
Experimental: as §2

BT474 = experiment: cells; details: Homo sapiens, BT-474, read-out: IC50 proliferation
Experimental: as §2

## CC(=O)Nc1nccc(-c2ccc3c(/C=C/c4ccc(CN(C)C)cc4)n[nH]c3c2)n1 [YLT-11, (E)-N-(4-(3-(4-((dimethylamino)methyl)styryl)-1H-indazol-6-yl)pyrimidin-2-yl)acetamide]
MDA-MB-468 [1]
  Percentage of cells with mitotic catastrophe: approximately 67%
MDA-MB-231 [2]
  Percentage of cells with mitotic catastrophe: about 58%
MDA-MB-231 xenografts; vehicle 12.3 ± 5.1
  cleaved caspase-3-positive cells: 66 ± 7.3%
MDA-MB-231 xenografts; vehicle 78 ± 8.1%
  Ki67-positive cells: 29 ± 6.3%
ERBB2/HER2
  IC50: 0.539 µM
TTBK1
  IC50: 56.7 µM
EGFR
  IC50: 0.664 µM
FGFR1
  IC50: 0.751 µM
[3]
  tumor inhibition rate: 76.7%
MCF-7 tumor xenograft
  tumor inhibition rate: 68%
Breast xenograft models; breast xenograft models, 90 mg/kg (p.o)
  inhibitory rate on tumor growth: more than 60%
Breast xenograft models; xenograft mice, 30 and 90 mg/kg p.o. every day
  body weight of experimental animals: no significant loss in body weight
PLK1 [4]
  Kd: > 10 µM
JNK2
  IC50: 2.7 µM
PLK2 [5]
  Kd: 0.653 µM
[6]
  tumor inhibition rate: 82.5%
PLK1 [7]
  IC50: 4.78 µM
PLK3 [8]
  IC50: 4.12 µM
[9]; 0.5 μM
  effect on centriole duplication: centriole duplications were conspicuously suppressed
[9]; low concentrations (≤0.25 μM)
  effect on centriole numbers: increased the centriole numbers
PLK3 [10]
  Kd: > 10 µM
PLK2 [11]
  IC50: 5.73 µM
Aurora A
  IC50: 0.468 µM
TOPK
  IC50: 1.03 µM
NEK2
  IC50: 0.332 µM
TTBK2
  IC50: 8.49 µM
sub-acute toxicity test
  body weight and hematoxylin and eosin staining vs vehicle: no obvious difference
  serological and hematological analyses vs vehicle: no significant difference
MDA-MB-436
  IC50: 0.08 µM
MCF-10A
  IC50: > 10 µM
ZR-75-1
  IC50: 0.223 µM
MDA-MB-435
  IC50: 0.154 µM
MDA-MB-468 [12]
  IC50: 0.068 µM
MDA-MB-231 [13]
  IC50: 0.12 µM
HCC1954
  IC50: 0.17 µM
MCF-7
  IC50: 0.074 µM
MDA-MB-453
  IC50: 0.21 µM
TNBC cell lines
  IC50: 0.068 to 0.12 µM
BT549
  IC50: 0.073 µM
ZR-75-30
  IC50: 0.184 µM
SKBR-3
  IC50: 0.231 µM
BT474
  IC50: 0.163 µM
